Measured values taken from US20070167412A1, “HALOCOMBSTATINS AND METHODS OF SYNTHESIS THEREOF” (ARIZONA BOARD OF REGENTS, priority 2003, published 2007).

Legend:
Assay type in all cases: cell-based
[1] = tested on: Stenotrophomonas maltophilia; assay: reference broth microdilution susceptibility assay; details: Table VII; ATCC 13637
From the text: (§1) The halocombstatins of the present invention appear to also have antimicrobial properties. More specifically, they appear to have antifungal and/or antibacterial properties. Antimicrobial evaluation of the halocombstatins involved susceptibility testing performed by the reference broth microdilution assay. The antimicrobial activities of the halocombstatins were very similar, targeting Gram-positive bacteria and the pathogenic fungi Cryptococcus neoformans, and results are shown in Table III.
(§2) (See Pettit, G. R., et al., Antineoplastic Agents 463. Synthesis of Combretastatin A-3 Diphosphates, Anticancer Drug Design 2000, 15, 397-404.) To determine the antimicrobial activity of the present compounds, susceptibility testing was performed by the reference broth microdilution assay. (See National Committee for Clinical Laboratory Standards. Methods for Dilution Antimicrobial Susceptibility Tests for Bacteria that Grow Aerobically. Approved Standard M7-A5. Wayne, P A: NCCLS, 2000. National Committee for Clinical Laboratory Standards. Reference Method for Broth Dilution Antifungal Susceptibility Testing of Yeasts. Aproved Standard M27-A. Wayne, P A: NCCLS, 1997.) The antimicrobial activities of the halocombretastatins of the present invention were very similar, targeting Gram-positive bacteria and Cryptococcus neoformans. This is illustrated in further detail in Table III. Thus, several of the novel compounds of the present invention appear to have potential as antimicrobial agents, such as antifingals and antibacterials.

Enterobacter cloacae = assay: reference broth microdilution susceptibility assay; details: Table VII; ATCC 13047
From the text: as §1, §2

Micrococcus luteus = assay: reference broth microdilution susceptibility assay; details: Table VII; Presque Isle 456
From the text: as §1, §2

Cryptococcus neoformans = assay: reference broth microdilution susceptibility assay; details: Table VII; ATCC 90112
From the text: as §1, §2

Neisseria gonorrhoeae = assay: reference broth microdilution susceptibility assay; details: Table VII; ATCC 49226
From the text: as §1, §2

Escherichia coli = assay: reference broth microdilution susceptibility assay; details: Table VII; ATCC 25922
From the text: as §1, §2

Enterococcus faecalis = assay: reference broth microdilution susceptibility assay; details: Table VII; ATCC 29212
From the text: as §1, §2

Candida albicans = assay: reference broth microdilution susceptibility assay; details: Table VII; ATCC 90028
From the text: as §1, §2

Streptococcus pneumoniae = assay: reference broth microdilution susceptibility assay; details: Table VII; ATCC 6303
From the text: as §1, §2

Staphylococcus aureus = assay: reference broth microdilution susceptibility assay; details: Table VII; ATCC 29213
From the text: as §1, §2

Breast MCF-7 = assay: human cancer cell growth inhibition, sulforhodamine B assay; details: 48 hours; for human cancer cell line growth inhibition (GI50) Breast MCF-7: Table Ia; for Human cancer cell line inhibition (GI50) Breast adn MCF-7: Table I
Procedure: (§3) Inhibition of human cancer cell growth was assessed using the National Cancer Institute's standard sulforhodamine B assay. After 48 hours, the plates were fixed with trichloracetic acid, stained with sulforhodamine B and read with an automated microplate reader. […] Inhibition of the mouse leukemia P388 cells was assessed in a 10% horse serum/Fisher medium soution for 24 hours, followed by a 48 hour incubation with serial dilutions of the compounds. Cell growth inhibition (ED50) was then calculated using a Z1 Becleman/Coulter particle counter.

Prostate DU-145 = assay: as above; details: 48 hours; for human cancer cell line growth inhibition (GI50) Prostate DU-145: Table Ia; for Human cancer cell line inhibition (GI50) Prostate DU-145: Table I
Procedure: as §3

Pancreas BXPC-3 = assay: as above; details: 48 hours; for human cancer cell line growth inhibition (GI50) Pancreas BXPC-3: Table Ia; for Human cancer cell line inhibition (GI50) Pancreas-a BXPC-3: Table I
Procedure: as §3

CNS SF268 = assay: as above; details: 48 hours; for human cancer cell line growth inhibition (GI50) CNS SF268: Table Ia; for Human cancer cell line inhibition (GI50) CNS SF268: Table I
Procedure: as §3

Colon KM20L2 = assay: as above; details: 48 hours; for human cancer cell line growth inhibition (GI50) Colon KM20L2: Table Ia; for Human cancer cell line inhibition (GI50) Colon KM20L2: Table I
Procedure: as §3

Lung-NSC NCI-H460 = assay: as above; details: 48 hours; for human cancer cell line growth inhibition (GI50) Lung-NSC NCI-H460: Table Ia; for Human cancer cell line inhibition (GI50) Lung-NSC NCI-H460: Table I
Procedure: as §3

Molecule | human cancer cell line growth inhibition (GI50) Breast MCF-7 (Breast MCF-7) [µg/mL] | human cancer cell line growth inhibition (GI50) Prostate DU-145 (Prostate DU-145) [µg/mL] | human cancer cell line growth inhibition (GI50) Pancreas BXPC-3 (Pancreas BXPC-3) [µg/mL] | human cancer cell line growth inhibition (GI50) CNS SF268 (CNS SF268) [µg/mL] | human cancer cell line growth inhibition (GI50) Colon KM20L2 (Colon KM20L2) [µg/mL] | human cancer cell line growth inhibition (GI50) Lung-NSC NCI-H460 (Lung-NSC NCI-H460) [µg/mL] | Human cancer cell line inhibition (GI50) Breast adn MCF-7 (Breast MCF-7) [µg/mL] | Human cancer cell line inhibition (GI50) Prostate DU-145 (Prostate DU-145) [µg/mL] | Human cancer cell line inhibition (GI50) Pancreas-a BXPC-3 (Pancreas BXPC-3) [µg/mL] | Human cancer cell line inhibition (GI50) CNS SF268 (CNS SF268) [µg/mL] | Human cancer cell line inhibition (GI50) Colon KM20L2 (Colon KM20L2) [µg/mL] | Human cancer cell line inhibition (GI50) Lung-NSC NCI-H460 (Lung-NSC NCI-H460) [µg/mL] | other results
COc1ccc(/C=C\c2cc(I)c(OC)c(I)c2)cc1OP(=O)([O-])[O-].[Na+].[Na+] [Compound 0] |  |  |  |  |  |  |  |  |  |  |  |  | Range of MIC, Stenotrophomonas maltophilia [1]: * (no inhibition at 64 μg/ml); Range of MIC, Enterobacter cloacae (Enterobacter cloacae): * (no inhibition at 64 μg/ml); Range of MIC, Micrococcus luteus (Micrococcus luteus): * (no inhibition at 64 μg/ml); Range of MIC, Cryptococcus neoformans (Cryptococcus neoformans): * (no inhibition at 64 μg/ml); Range of MIC, Neisseria gonorrhoeae (Neisseria gonorrhoeae): 32 to 64 µg/mL; Range of MIC, Escherichia coli (Escherichia coli): * (no inhibition at 64 μg/ml); Range of MIC, Enterococcus faecalis (Enterococcus faecalis): * (no inhibition at 64 μg/ml); Range of MIC, Candida albicans (Candida albicans): * (no inhibition at 64 μg/ml); Range of MIC, Streptococcus pneumoniae (Streptococcus pneumoniae): * (no inhibition at 64 μg/ml); Range of MIC, Staphylococcus aureus (Staphylococcus aureus): * (no inhibition at 64 μg/ml)
C1COCCN1.C1COCCN1.COc1ccc(/C=C\c2cc(I)c(OC)c(I)c2)cc1OP(=O)(O)O [V] | 0.066 | 0.028 | 0.35 | 0.054 | >1 | 0.033 |  |  |  |  |  |  | 
C1CCNCC1.C1CCNCC1.COc1ccc(/C=C\c2cc(I)c(OC)c(I)c2)cc1OP(=O)(O)O [W] | 0.070 | 0.025 | 0.33 | 0.041 | >1 | 0.025 |  |  |  |  |  |  | 
COC(=O)CN.COC(=O)CN.COc1ccc(/C=C\c2cc(I)c(OC)c(I)c2)cc1OP(=O)(O)O [X] | 0.10 | 0.023 | 0.36 | 0.054 | >1 | 0.030 |  |  |  |  |  |  | 
COC(=O)C(N)Cc1c[nH]c2ccccc12.COC(=O)C(N)Cc1c[nH]c2ccccc12.COc1ccc(C=Cc2cc(I)c(OC)c(I)c2)cc1OP(=O)(O)O [Y] | 0.22 | 0.026 | 0.37 | 0.086 | >1 | 0.033 |  |  |  |  |  |  | 
COc1ccc(/C=C\c2cc(I)c(OC)c(I)c2)cc1OP(=O)(O)O.NC(CO)(CO)CO.NC(CO)(CO)CO [Z] | 0.047 | 0.021 | 0.33 | 0.040 | 0.94 | 0.025 |  |  |  |  |  |  | 
Calcium 3-bromo-4,4′,5-trimethoxy-Z-stilbene 3′-O-phosphate [Compound 19f] |  |  |  |  |  |  | 0.0022 | 0.0063 | <0.001 | 0.0022 | 0.37 | 0.0068 | 
Cesium 3-bromo-4,4′,5-trimethoiy-phenyl-Z-stilbene 3′-O-phosphate [Compound 19d] |  |  |  |  |  |  | 0.0044 | 0.0079 | 0.15 | 0.0064 | 0.48 | 0.0066 | 
Lithium 3-bromo-4,4′,5-trbnethoxy-Z-stilbene 3′-O-phosphate [Compound 19b] |  |  |  |  |  |  | 0.0039 | 0.0066 | 0.13 | 0.0030 | 0.11 | 0.0026 | 
Magnesium 3-bromg-4,4′,5-trimethoxy-Z-stilbene 3′-O-phosphate [Compound 19g] |  |  |  |  |  |  | 0.0045 | 0.0045 | 0.074 | 0.0053 | 0.27 | 0.0039 | 
Potassium 3-bromo-4,4′,5-trimethoxy-Z-stilbene 3′-O-phosphate [Compound 19c] |  |  |  |  |  |  | 0.0035 | 0.0028 | 0.20 | 0.0032 | 0.24 | 0.0029 | 
Rubidium 3-bromo-4,4′,5-trimetboxy-Z-stilbene 3′-O-phosphate [Compound 19e] |  |  |  |  |  |  | 0.043 | 0.042 | 0.56 | 0.023 | 2.6 | 0.041 | 
Sodium 3-bromo-4,4′,-5-trimethoxy-Z-stilbene 3′-O-phosphate [Compound 19a] |  |  |  |  |  |  | 0.0041 | 0.0046 | 0.093 | 0.0034 | 0.23 | 0.0028 | 
sodium combretastatin A-4 phosphate [Compound 1b, reference compound] |  |  |  |  |  |  |  |  |  | 0.036 | 0.034 | 0.029 | 
